Series [1] concerns Plasmodium falciparum in human red blood cells. As to conditions: 24-hour period, relative to untreated infected red blood cells.
A short description of series [2]: Viability by trypan blue exclusion, normal lymphocytes. Type of series: cell-based, human. As to conditions: 100 μM. The procedure: (§1) EL-4 lymphoma cells were suspended in RPMI 1640 at 5,000,000/ml with 500,000 cells per well. Various concentrations of cecropin SB-37 and Shiva 1 were added and the wells incubated at 37° C. in a 5% CO2 atmosphere for one hour. Viability was determined by microscopic observation for trypan blue exclusion.
(§2) The procedure of Example 5 was repeated with 50 and 200 μM cecropin SB-37 using SP2 mouse lymphoma cells, KG-1 human leukemia cells, Daudi human Burkitt's lymphoma cells, non-adherent normal human lymphocytes and adherent 3T3 […] fibroblasts. Viability was determined by microscopic observation for trypan blue exclusion.
(§3) This procedure was repeated with 100 μM cecropin SB-37 using non-adherent normal human lymphocytes, Daudi human Burkitt's lymphoma cells, KG-1 human leukemia cells, U937 human monocytic leukemia cells, and SP2 murine myeloma cells, and determining viability by the trypan blue exclusion method at 15, 30 and 60 minutes following addition of the peptide.

Series [3] deals with non-adherent normal human lymphocytes. Described as above. The series is classed as cell-based. The method, then:
as §1, §2, §3

Residues, ends and D or L forms follow the SMILES beside them.

`CC[C@H](C)[C@H](NC(=O)CNC(=O)[C@H](CC(N)=O)NC(=O)[C@H](CCCNC(=N)N)NC(=O)[C@@H](NC(=O)[C@H](CC(N)=O)NC(=O)[C@H](CCCNC(=N)N)NC(=O)CNC(=O)[C@H](CCSC)NC(=O)[C@H](CCCCN)NC(=O)[C@H](CCC(=O)O)NC(=O)[C@@H](NC(=O)[C@H](CCCCN)NC(=O)[C@H](CCCCN)NC(=O)[C@H](Cc1ccccc1)NC(=O)[C@@H](NC(=O)[C@H](CCCCN)NC(=O)[C@H](Cc1c[nH]c2ccccc12)NC(=O)[C@H](CCCCN)NC(=O)[C@@H]1CCCN1C(=O)[C@@H](N)CCSC)C(C)C)[C@@H](C)CC)[C@@H](C)CC)C(=O)N[C@H](C(=O)N[C@@H](CCCCN)C(=O)N[C@@H](C)C(=O)NCC(=O)N1CCC[C@H]1C(=O)N[C@@H](C)C(=O)N[C@H](C(=O)N[C@@H](C)C(=O)N[C@H](C(=O)N[C@@H](CC(C)C)C(=O)NCC(=O)N[C@@H](CCC(=O)O)C(=O)N[C@@H](C)C(=O)N[C@@H](CCCCN)C(=O)N[C@@H](C)C(=O)N[C@@H](CC(C)C)C(=O)NCC(N)=O)C(C)C)[C@@H](C)CC)C(C)C` [Cecropin SB-37] (H-MPKWKVFKKIEKMGRNIRNGIVKAGPAIAVLGEAKALG-NH2): the viability amounted to 0%, the viability at 0.01 µM amounted to 100%, the viability at 0.1 µM was determined as 79.4% and the viability at 1 µM turned out to be 48.8%. For the same compound, the viability at 5 µM is 38.5% and the viability at 7.5 µM is 0.7%. Also, in series [1], the “LD50 (concentration for 50% reduction in 3H-hypoxanthine uptake)” value is recorded as “about 22.5 μM”. In series [2] (15 min.), this compound gave a viability at 100 µM of 75%. In series [2] (30 min.), this compound yielded a viability at 100 µM of 80%. This compound displayed a viability at 100 µM in series [2] (60 min.) of 85%. In series [3] (50 μM), the “Survival (percent)” value worked out at 100%. Also, the “Survival (percent)” value in series [3] (100 μM) came to 30%.

The values are drawn from patent publication US6440935B1, “Inhibition of eucaryotic pathogens and neoplasms and stimulation of fibroblasts and lymphocytes with lytic peptides” (priority 1987, dated 2002).
